Measurements reported in ChEMBL document CHEMBL1909046, “DrugMatrix in vitro pharmacology data”.

Assays:
[1] = target: T1, Alpha-1B adrenergic receptor (Rattus norvegicus, UniProt P15823); assay: DRUGMATRIX: Alpha-1B adrenergic receptor radioligand binding (ligand: prazosin); format: cell membranes, Wistar, Liver, Membrane; details: Not Active = under 50% inhibition at 10 µM
T1 sequence (P15823 whole entry): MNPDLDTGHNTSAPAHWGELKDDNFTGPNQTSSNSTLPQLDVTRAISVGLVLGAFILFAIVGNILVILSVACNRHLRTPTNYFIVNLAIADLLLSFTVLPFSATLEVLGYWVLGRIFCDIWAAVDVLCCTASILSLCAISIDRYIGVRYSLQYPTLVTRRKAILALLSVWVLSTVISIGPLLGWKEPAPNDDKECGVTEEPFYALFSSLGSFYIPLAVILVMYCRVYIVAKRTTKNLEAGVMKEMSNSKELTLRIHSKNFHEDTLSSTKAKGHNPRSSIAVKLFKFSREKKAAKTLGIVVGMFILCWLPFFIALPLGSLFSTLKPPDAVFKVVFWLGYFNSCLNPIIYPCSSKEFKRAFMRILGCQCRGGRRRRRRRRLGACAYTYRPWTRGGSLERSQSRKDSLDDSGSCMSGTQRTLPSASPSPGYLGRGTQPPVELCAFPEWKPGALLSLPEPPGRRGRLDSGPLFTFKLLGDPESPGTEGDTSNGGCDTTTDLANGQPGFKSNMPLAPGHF

[2] = target: T2, 5-hydroxytryptamine receptor 2C (Homo sapiens, UniProt P28335); assay: DRUGMATRIX: Serotonin (5-Hydroxytryptamine) 5-HT2C radioligand binding (ligand: [3H] Mesulergine); format: cell membranes, CHO-K1, Membrane; details: cho-k1; Not Active = under 50% inhibition at 10 µM
T2 sequence (P28335 whole entry): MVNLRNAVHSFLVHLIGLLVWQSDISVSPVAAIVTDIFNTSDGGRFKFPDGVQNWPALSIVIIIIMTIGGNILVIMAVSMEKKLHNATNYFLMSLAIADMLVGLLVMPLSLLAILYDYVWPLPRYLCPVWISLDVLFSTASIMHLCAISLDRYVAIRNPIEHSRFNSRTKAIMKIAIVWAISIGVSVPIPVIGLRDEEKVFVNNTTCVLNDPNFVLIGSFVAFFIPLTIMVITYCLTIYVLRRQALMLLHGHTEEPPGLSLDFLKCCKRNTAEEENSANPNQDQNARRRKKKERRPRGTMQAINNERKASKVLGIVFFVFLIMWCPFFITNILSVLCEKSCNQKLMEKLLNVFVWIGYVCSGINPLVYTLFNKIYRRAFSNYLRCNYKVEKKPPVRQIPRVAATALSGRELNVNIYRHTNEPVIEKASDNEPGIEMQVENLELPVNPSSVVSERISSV

D(1A) dopamine receptor = D(1A) dopamine receptor (Homo sapiens, UniProt P21728); assay: DRUGMATRIX: Dopamine D1 radioligand binding (ligand: [3H] SCH-23390); format: cell membranes, CHO, Membrane; details: cho; Not Active = under 50% inhibition at 10 µM
Sequence of D(1A) dopamine receptor (P21728 whole entry): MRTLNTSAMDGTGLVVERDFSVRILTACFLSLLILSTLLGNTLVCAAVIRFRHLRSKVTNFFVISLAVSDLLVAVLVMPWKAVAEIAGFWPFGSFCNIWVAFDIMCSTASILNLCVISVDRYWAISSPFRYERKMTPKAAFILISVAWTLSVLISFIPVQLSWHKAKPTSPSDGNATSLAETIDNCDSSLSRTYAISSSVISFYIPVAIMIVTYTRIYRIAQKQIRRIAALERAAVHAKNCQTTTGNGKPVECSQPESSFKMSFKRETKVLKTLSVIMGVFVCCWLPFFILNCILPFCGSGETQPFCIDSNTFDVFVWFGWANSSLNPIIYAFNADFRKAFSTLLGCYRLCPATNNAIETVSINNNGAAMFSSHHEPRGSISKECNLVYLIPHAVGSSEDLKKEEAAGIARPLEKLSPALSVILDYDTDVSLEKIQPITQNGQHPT

Cytochrome P450 2A6 = target: T3, Cytochrome P450 2A6 (Homo sapiens, UniProt P11509); details: bti-tn-5b1-4; also: in other assays of this panel Not Active means under 50% inhibition at 10 µM
T3 sequence (P11509 whole entry): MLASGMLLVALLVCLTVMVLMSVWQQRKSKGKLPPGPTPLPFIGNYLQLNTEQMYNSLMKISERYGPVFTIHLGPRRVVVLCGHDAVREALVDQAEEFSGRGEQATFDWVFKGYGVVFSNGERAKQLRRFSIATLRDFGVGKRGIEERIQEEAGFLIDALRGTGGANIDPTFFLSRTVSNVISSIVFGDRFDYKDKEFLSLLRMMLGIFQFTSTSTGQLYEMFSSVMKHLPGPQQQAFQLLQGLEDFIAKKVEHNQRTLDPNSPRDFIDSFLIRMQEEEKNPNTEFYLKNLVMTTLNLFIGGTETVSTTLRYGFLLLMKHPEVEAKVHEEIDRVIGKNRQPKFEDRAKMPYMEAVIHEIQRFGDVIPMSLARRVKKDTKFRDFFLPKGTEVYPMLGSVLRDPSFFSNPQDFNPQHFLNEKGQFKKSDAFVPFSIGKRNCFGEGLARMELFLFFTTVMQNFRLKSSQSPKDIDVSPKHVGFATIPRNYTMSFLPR

[3] = target: Voltage-gated inwardly rectifying potassium channel KCNH2 (Homo sapiens, UniProt Q12809); details: hek293; also: in other assays of this panel Not Active means under 50% inhibition at 10 µM
Sequence of Voltage-gated inwardly rectifying potassium channel KCNH2 (Q12809 whole entry): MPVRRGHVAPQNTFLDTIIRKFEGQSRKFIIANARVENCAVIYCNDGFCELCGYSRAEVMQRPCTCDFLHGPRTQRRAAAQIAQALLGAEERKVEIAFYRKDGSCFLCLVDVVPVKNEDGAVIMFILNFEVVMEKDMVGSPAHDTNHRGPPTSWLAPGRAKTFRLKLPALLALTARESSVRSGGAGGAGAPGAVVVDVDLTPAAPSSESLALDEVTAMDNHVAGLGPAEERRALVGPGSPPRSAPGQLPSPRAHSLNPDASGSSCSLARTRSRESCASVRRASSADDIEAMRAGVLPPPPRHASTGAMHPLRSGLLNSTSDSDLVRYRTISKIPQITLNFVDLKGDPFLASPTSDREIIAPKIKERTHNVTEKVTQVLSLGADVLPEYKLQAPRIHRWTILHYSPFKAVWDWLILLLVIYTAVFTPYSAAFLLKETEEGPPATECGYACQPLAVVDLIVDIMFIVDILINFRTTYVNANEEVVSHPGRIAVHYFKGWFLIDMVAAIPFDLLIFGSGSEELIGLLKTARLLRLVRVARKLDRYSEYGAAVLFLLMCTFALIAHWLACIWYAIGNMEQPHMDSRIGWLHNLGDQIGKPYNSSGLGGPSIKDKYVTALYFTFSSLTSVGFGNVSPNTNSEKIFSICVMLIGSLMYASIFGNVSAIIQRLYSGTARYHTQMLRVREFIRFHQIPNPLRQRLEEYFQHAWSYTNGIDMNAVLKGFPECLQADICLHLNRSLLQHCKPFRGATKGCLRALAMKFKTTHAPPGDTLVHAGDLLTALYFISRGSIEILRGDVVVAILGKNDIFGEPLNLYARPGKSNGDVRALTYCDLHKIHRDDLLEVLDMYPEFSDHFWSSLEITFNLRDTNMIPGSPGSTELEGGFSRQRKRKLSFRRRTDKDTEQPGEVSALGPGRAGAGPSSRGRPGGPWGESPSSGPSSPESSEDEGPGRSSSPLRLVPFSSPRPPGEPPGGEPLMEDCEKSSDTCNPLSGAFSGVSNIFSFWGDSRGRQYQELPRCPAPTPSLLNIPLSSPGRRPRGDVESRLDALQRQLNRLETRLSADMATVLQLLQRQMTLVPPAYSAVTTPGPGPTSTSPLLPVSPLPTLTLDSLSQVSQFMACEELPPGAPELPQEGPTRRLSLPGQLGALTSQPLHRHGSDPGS

Estrogen receptor beta = Estrogen receptor beta (Homo sapiens, UniProt Q92731); details: sf9; also: in other assays of this panel Not Active means under 50% inhibition at 10 µM
Sequence of Estrogen receptor beta (Q92731 whole entry): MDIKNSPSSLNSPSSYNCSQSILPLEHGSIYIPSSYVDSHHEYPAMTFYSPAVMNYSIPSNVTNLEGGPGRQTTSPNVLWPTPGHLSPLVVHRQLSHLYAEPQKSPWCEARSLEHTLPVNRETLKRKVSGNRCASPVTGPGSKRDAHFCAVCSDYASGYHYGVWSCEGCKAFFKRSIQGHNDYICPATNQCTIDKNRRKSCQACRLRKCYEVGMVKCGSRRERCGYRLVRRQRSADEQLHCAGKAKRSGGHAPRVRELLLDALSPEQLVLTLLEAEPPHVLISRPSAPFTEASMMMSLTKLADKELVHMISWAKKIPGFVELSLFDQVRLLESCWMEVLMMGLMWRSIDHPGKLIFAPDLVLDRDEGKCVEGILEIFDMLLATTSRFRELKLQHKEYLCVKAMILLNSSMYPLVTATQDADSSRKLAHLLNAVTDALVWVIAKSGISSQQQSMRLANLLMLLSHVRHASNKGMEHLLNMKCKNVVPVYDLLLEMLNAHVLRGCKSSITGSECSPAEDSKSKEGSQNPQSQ

[4] = target: Kappa-type opioid receptor (Homo sapiens, UniProt P41145); assay: DRUGMATRIX: Opiate kappa (OP2, KOP) radioligand binding (ligand: [3H] Diprenorphine); format: cell membranes, HEK293, Membrane; details: hek293; Not Active = under 50% inhibition at 10 µM
Sequence of Kappa-type opioid receptor (P41145 whole entry): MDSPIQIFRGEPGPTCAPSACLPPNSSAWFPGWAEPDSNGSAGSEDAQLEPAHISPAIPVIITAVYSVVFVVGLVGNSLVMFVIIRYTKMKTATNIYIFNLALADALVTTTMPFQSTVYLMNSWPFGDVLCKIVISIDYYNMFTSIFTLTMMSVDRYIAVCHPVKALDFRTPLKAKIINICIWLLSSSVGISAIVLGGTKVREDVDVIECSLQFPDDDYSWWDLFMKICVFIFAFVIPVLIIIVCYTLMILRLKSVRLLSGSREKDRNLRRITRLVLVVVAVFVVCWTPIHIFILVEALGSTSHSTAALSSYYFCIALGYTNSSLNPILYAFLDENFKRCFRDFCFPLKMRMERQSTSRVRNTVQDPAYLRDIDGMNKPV

OC[C@@H](O)[C@@H](O)[C@H](O)[C@H](O)CO [MANNITOL]
Not Active: IC50 [1] | IC50 [2] | IC50 (D(1A) dopamine receptor) | IC50 (Cytochrome P450 2A6) | Ki (Cytochrome P450 2A6) | IC50 [3] | Ki [3]

O=[As][O-].[Na+] [SODIUM ARSENITE]
Not Active: IC50 [1] | IC50 [2] | IC50 (D(1A) dopamine receptor) | IC50 (Cytochrome P450 2A6) | Ki (Cytochrome P450 2A6) | IC50 (Estrogen receptor beta) | IC50 [3] | Ki [3]

Cc1cc2c(s1)Nc1ccccc1N=C2N1CCN(C)CC1 [OLANZAPINE]
Not Active: IC50 [4] | IC50 (Cytochrome P450 2A6) | Ki (Cytochrome P450 2A6)

O=C(c1ccccc1)c1ccc2n1CCC2C(=O)O (configuration not stated) [KETOROLAC]
Not Active: IC50 [1] | IC50 [2] | IC50 (D(1A) dopamine receptor) | IC50 [4] | IC50 (Cytochrome P450 2A6) | Ki (Cytochrome P450 2A6) | IC50 [3] | Ki [3]

CCN(CC)N=O [N-NITROSODIETHYLAMINE]
Not Active: IC50 [1] | IC50 [2] | IC50 (D(1A) dopamine receptor) | IC50 (Cytochrome P450 2A6) | Ki (Cytochrome P450 2A6) | IC50 [3] | Ki [3]

LEAD(IV) ACETATE
Not Active: IC50 [1] | Ki [1] | IC50 [2] | Ki [2] | IC50 (D(1A) dopamine receptor) | Ki (D(1A) dopamine receptor) | IC50 (Cytochrome P450 2A6) | Ki (Cytochrome P450 2A6) | IC50 (Estrogen receptor beta) | Ki (Estrogen receptor beta) | IC50 [3] | Ki [3]

Oc1ccc(/C=C/c2cc(O)cc(O)c2)cc1 [RESVERATROL]
Not Active: IC50 [1] | IC50 [2] | IC50 (D(1A) dopamine receptor) | IC50 (Cytochrome P450 2A6) | Ki (Cytochrome P450 2A6) | IC50 [3] | Ki [3]

CC1=C(/C=C/C(C)=C/C=C/C(C)=C/C(=O)O)C(C)(C)CCC1 [TRETINOIN]
Not Active: IC50 [1] | IC50 [2] | IC50 (D(1A) dopamine receptor) | IC50 [4] | IC50 (Cytochrome P450 2A6) | Ki (Cytochrome P450 2A6)

O=C(OC[C@H]1O[C@@H](OC(=O)c2cc(O)c(O)c(OC(=O)c3cc(O)c(O)c(O)c3)c2)[C@H](OC(=O)c2cc(O)c(O)c(OC(=O)c3cc(O)c(O)c(O)c3)c2)[C@@H](OC(=O)c2cc(O)c(O)c(OC(=O)c3cc(O)c(O)c(O)c3)c2)[C@@H]1OC(=O)c1cc(O)c(O)c(OC(=O)c2cc(O)c(O)c(O)c2)c1)c1cc(O)c(O)c(OC(=O)c2cc(O)c(O)c(O)c2)c1 [TANNIC ACID]
Not Active: IC50 [1] | IC50 [2] | IC50 (D(1A) dopamine receptor) | IC50 [4] | IC50 (Cytochrome P450 2A6) | Ki (Cytochrome P450 2A6) | IC50 [3] | Ki [3]

CC(Cl)(Cl)Cl [TRICHLOROETHANE]
Not Active: IC50 [1] | IC50 [2] | IC50 (D(1A) dopamine receptor) | IC50 (Cytochrome P450 2A6) | Ki (Cytochrome P450 2A6) | IC50 [3] | Ki [3]

CC(O)C(=O)O (configuration not stated) [LACTIC ACID]
Not Active: IC50 [1] | IC50 [2] | IC50 (D(1A) dopamine receptor) | IC50 [4] | IC50 (Cytochrome P450 2A6) | Ki (Cytochrome P450 2A6) | IC50 [3] | Ki [3]

C[N+]1(C)[C@@H]2C[C@@H](OC(=O)[C@H](CO)c3ccccc3)C[C@H]1[C@@H]1O[C@@H]12.[Br-] [METHSCOPOLAMINE BROMIDE]
Not Active: IC50 [1] | IC50 [2] | IC50 (D(1A) dopamine receptor) | IC50 (Cytochrome P450 2A6) | Ki (Cytochrome P450 2A6) | IC50 [3] | Ki [3]

Cc1nnc(NS(=O)(=O)c2ccc(N)cc2)s1 [SULFAMETHIZOLE]
Not Active: IC50 [1] | IC50 [2] | IC50 (D(1A) dopamine receptor) | IC50 [4] | IC50 (Cytochrome P450 2A6) | Ki (Cytochrome P450 2A6) | IC50 [3] | Ki [3]

CC(=O)O[C@]1(C(C)=O)CC[C@H]2[C@@H]3C[C@H](C)C4=CC(=O)CC[C@]4(C)[C@H]3CC[C@@]21C [MEDROXYPROGESTERONE ACETATE]
Not Active: IC50 [1] | IC50 [2] | IC50 (D(1A) dopamine receptor) | IC50 [4] | IC50 (Cytochrome P450 2A6) | Ki (Cytochrome P450 2A6) | IC50 [3] | Ki [3]

COC(=O)Nc1nc2ccc(C(=O)c3ccccc3)cc2[nH]1 [MEBENDAZOLE]
Not Active: IC50 [1] | IC50 [2] | IC50 (D(1A) dopamine receptor) | IC50 [4] | IC50 (Cytochrome P450 2A6) | Ki (Cytochrome P450 2A6) | IC50 [3] | Ki [3]

CN(C)CCC=C1c2ccccc2COc2ccccc21 [DOXEPIN]
Not Active: IC50 [4] | IC50 (Cytochrome P450 2A6) | Ki (Cytochrome P450 2A6) | IC50 [3] | Ki [3]

Cc1ccnc(NS(=O)(=O)c2ccc(N)cc2)n1 [SULFAMERAZINE]
Not Active: IC50 [1] | IC50 [2] | IC50 (D(1A) dopamine receptor) | IC50 [4] | IC50 (Cytochrome P450 2A6) | Ki (Cytochrome P450 2A6) | IC50 [3] | Ki [3]

C1CCN2C[C@@H]3C[C@@H](CN4CCCC[C@@H]34)[C@H]2C1 [SPARTEINE]
Not Active: IC50 [1] | IC50 [2] | IC50 (D(1A) dopamine receptor) | IC50 (Estrogen receptor beta) | IC50 [3] | Ki [3]

CO[C@@H]1[C@@H](OC)[C@H](C)[C@@](O)(CC(=O)O)O[C@H]1[C@H](C)[C@H]1O[C@@]2(CC[C@@](C)([C@H]3CC[C@@](C)([C@@H]4O[C@@H]([C@H]5O[C@](C)(O)[C@H](C)C[C@@H]5C)C[C@@H]4O[C@@H]4C[C@H](OC)[C@@H](OC)[C@H](C)O4)O3)O2)C[C@H](O)[C@H]1C.N [MADURAMICIN]
Not Active: IC50 [2] | IC50 [4] | IC50 (Cytochrome P450 2A6) | Ki (Cytochrome P450 2A6) | IC50 [3] | Ki [3]
